Test results reported in PubChem BioAssay (NCI).
Several values for one entry are separate records, joined by “and”; a condition that tells them apart may be missing. Equal values may be shown once.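 These data come from cells grown in 96-well plates and exposed to compound for 48 hours at five concentrations. GI50 marks 50% less growth. TGI: total growth inhibition.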

Legend:
Experiment in all cases: DTP human tumour cell line panel, 48 h
OVCAR-4 ovarian = test system: OVCAR-4 ovarian
SF-268 CNS = test system: SF-268 CNS
SF-295 CNS = test system: SF-295 CNS
DU-145 prostate = test system: DU-145 prostate
HL-60(TB) leukemia = test system: HL-60(TB) leukemia
OVCAR-8 ovarian = test system: OVCAR-8 ovarian
SF-539 CNS = test system: SF-539 CNS
CCRF-CEM leukemia = test system: CCRF-CEM leukemia
EKVX NSCLC = test system: EKVX NSCLC
786-0 renal = test system: 786-0 renal

SMILES | GI50 (OVCAR-4 ovarian) | TGI (OVCAR-4 ovarian) | GI50 (SF-268 CNS) | TGI (SF-268 CNS) | GI50 (SF-295 CNS) | TGI (SF-295 CNS) | GI50 (DU-145 prostate) | TGI (DU-145 prostate) | GI50 (HL-60(TB) leukemia) | TGI (HL-60(TB) leukemia) | GI50 (OVCAR-8 ovarian) | TGI (OVCAR-8 ovarian) | GI50 (SF-539 CNS) | TGI (SF-539 CNS) | GI50 (CCRF-CEM leukemia) | TGI (CCRF-CEM leukemia) | GI50 (EKVX NSCLC) | TGI (EKVX NSCLC) | GI50 (786-0 renal) | TGI (786-0 renal)
CCOC(=O)C1=C(C)NC2SC(=O)/C(=C\c3cccc(Cl)c3)N2C1c1ccccc1 (stereo not given) | 84.3 µM | > 100 µM | > 100 µM | > 100 µM | > 100 µM | > 100 µM | > 100 µM | > 100 µM | > 100 µM | > 100 µM | > 100 µM | > 100 µM | > 100 µM | > 100 µM | > 100 µM | > 100 µM | > 100 µM | > 100 µM | > 100 µM | > 100 µM
Cc1c(O)cccc1C(=O)N[C@@H](CSc1ccccc1)[C@H](O)CN1C[C@H]2CCCC[C@H]2C[C@H]1C(=O)NC(C)(C)C | 5.97 µM and 5.96 µM | > 37.6 µM and 23.4 µM | 4.5 µM and 5.97 µM | 15.8 µM and 26 µM | 2.53 µM and 3.49 µM | 6.97 µM and 25.5 µM | 6.58 µM and 8.27 µM | 25.2 µM and 31.8 µM | 2.95 µM and 3.43 µM | > 26 µM and 13.6 µM | 6.56 µM and 7.87 µM | 35.2 µM and 39.6 µM | 6.35 µM and 5.55 µM | 22.2 µM and 16.2 µM | 2.76 µM and 8.59 µM | 6.83 µM and > 27 µM | 4.86 µM and 6.92 µM | 38 µM and > 43.4 µM | 3.8 µM and 5.87 µM | 16.4 µM and 16 µM
c1cc[n+](Cc2c3ccccc3cc3c2ccc2ccccc23)cc1 | 3.57 µM | 14.3 µM | 1.13 µM | 5.48 µM | 3.42 µM | 23.2 µM | 6.45 µM | 20.4 µM | 3.15 µM | 12.5 µM | 3.49 µM | 16.1 µM | 2.55 µM | 10.5 µM | 4.73 µM | 24 µM | 19.5 µM | > 100 µM | 4.83 µM | 26.1 µM
CC1(C)N=C(N)N=C(N)N1c1ccc(OCC(=O)Nc2ccc(S(=O)(=O)F)cc2Cl)c(Cl)c1 | > 100 µM | > 100 µM | 3.79 µM | > 100 µM | 5.23 µM | > 100 µM | 5.69 µM | > 100 µM | 1.46 µM | > 100 µM | 7.79 µM | > 100 µM | 4.77 µM | > 100 µM | 0.277 µM | > 100 µM | > 100 µM | > 100 µM | 3.13 µM | > 100 µM
COc1ccc(C2=C(c3ccccc3)C(=O)N3CCCC3C2)cc1 (stereo not given) | 55.2 µM | > 100 µM | 26 µM | > 100 µM | 2.11 µM | > 100 µM | 4.13 µM | > 100 µM | 0.493 µM | > 63.6 µM | 9.42 µM | > 100 µM | 3.11 µM | 98.2 µM | 1.79 µM | > 100 µM | > 82.9 µM | > 100 µM | 1.13 µM | > 100 µM
COc1ccc2[nH]c(C(=O)OCc3ccc4c(Br)cc(Br)c(O)c4n3)cc2c1 | 0.895 µM | 2.25 µM | 1.48 µM | 2.92 µM | 2.02 µM | 5.33 µM | 1.12 µM | 2.33 µM | 0.7 µM | 3.41 µM | 0.907 µM | 2.64 µM | 0.768 µM | 2.05 µM | 0.331 µM | > 100 µM | 1.41 µM | 2.82 µM | 1.23 µM | 2.61 µM
CC[C@]12C=CCN3CC[C@]4(C(=C(C(=O)OC)C1)Nc1cc5c(cc14)[C@@H]1[C@H](O5)[C@@H](O)[C@@]4(CC)CC(C(=O)OC)=C5Nc6ccccc6[C@@]56CCN1[C@@H]46)[C@@H]32 | 0.365 µM and 0.397 µM | 13 µM and > 100 µM | 1.15 µM and 1.2 µM | 19.7 µM and 54.5 µM | 1.17 µM and 0.535 µM | 25 µM and 12.8 µM | 1.59 µM and 1.77 µM | 25 µM and 10.7 µM | 0.134 µM and 0.269 µM | 9.05 µM and 1.91 µM | 0.648 µM and 0.449 µM | 25 µM and > 100 µM | 0.15 µM and 0.339 µM | 3.74 µM and 7.05 µM | 0.238 µM and 0.345 µM | 25 µM and > 100 µM | 0.927 µM and 0.748 µM | 25 µM and 33.8 µM | 0.252 µM and 0.383 µM | 10 µM and 33.6 µM
COc1ccccc1CNCCCN1C(=O)c2ccc3c4c(ccc(c24)C1=O)C(=O)N(CCCNCCCCNCCCN)C3=O | 0.167 µM | 0.319 µM | 0.333 µM | 3.61 µM | 1.06 µM | 6.79 µM | 0.682 µM | 2.03 µM | 0.409 µM | 1.69 µM | 0.285 µM | 2.19 µM | 0.426 µM | 1.67 µM | 0.425 µM | 19.9 µM | 1.39 µM | 3.22 µM | 1.03 µM | 3.78 µM
Cc1nc2ccc(-n3ncc(C(=O)c4cc5ccccc5[nH]4)c3N)cc2[nH]1 | 16 µM | > 100 µM | 6.63 µM | > 100 µM | 4.87 µM | 44.8 µM | 13.1 µM | > 100 µM | 11.9 µM | 45.9 µM | 7.08 µM | > 100 µM | 1.17 µM | 10.9 µM | 9.24 µM | 96 µM | 20.9 µM | > 100 µM | 9.44 µM | 69.4 µM
